Assay results published in patent publication US20090093448A1, “19-NOR-PROGESTERONE FOR CONTRACEPTION” (GRUNENTHAL GMBH, priority 2007, published 2009).
Counter-ions that a name gives are not always drawn.

What was measured:
[1] = biological target: T1, human progesterone receptor (Homo sapiens, UniProt P06401); experiment: Relative binding affinity for the human progesterone receptor; conditions: for Relative binding affinity to progesterone receptor: progesterone as reference = 100
T1 sequence (P06401 1-933): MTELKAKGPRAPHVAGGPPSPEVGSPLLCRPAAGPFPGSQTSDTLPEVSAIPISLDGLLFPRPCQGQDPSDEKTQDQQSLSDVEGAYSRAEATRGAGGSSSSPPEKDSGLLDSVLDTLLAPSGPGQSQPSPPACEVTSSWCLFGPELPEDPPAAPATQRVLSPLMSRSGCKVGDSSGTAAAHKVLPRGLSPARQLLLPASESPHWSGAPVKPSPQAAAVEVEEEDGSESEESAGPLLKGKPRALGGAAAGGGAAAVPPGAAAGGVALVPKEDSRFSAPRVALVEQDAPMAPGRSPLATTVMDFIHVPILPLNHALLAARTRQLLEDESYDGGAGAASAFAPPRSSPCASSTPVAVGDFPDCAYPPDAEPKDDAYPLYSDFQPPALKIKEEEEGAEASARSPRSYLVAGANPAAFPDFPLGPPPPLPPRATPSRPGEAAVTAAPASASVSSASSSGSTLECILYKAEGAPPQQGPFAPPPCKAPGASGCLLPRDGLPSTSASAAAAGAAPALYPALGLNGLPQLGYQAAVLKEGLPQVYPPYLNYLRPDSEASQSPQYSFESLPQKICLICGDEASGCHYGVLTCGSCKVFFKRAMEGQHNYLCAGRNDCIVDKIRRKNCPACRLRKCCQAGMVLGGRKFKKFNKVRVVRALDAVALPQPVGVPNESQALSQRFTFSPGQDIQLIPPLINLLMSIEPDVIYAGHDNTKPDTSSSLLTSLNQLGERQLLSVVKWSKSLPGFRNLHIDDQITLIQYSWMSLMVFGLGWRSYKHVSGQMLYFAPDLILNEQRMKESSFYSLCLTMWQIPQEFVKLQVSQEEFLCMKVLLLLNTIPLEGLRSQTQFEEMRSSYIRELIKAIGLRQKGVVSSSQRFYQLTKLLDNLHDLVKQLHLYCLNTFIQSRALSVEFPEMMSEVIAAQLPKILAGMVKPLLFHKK

endometrium = experiment: McPhail test (progestational proliferation of the endometrium); type: in vivo, rabbits; conditions: for Mean McPhail Score (max. 4.0): estrone-primed immature female rabbits, five daily doses
Procedure: Trimegestone sulfate was tested in the McPhail test, which is a test for progesterone and like substances. Immature female rabbits are treated with 150 IU of estrone over a period of 6 days. The test material is then given in five daily subcutaneous doses. Progestational proliferation of the endometrium is noted and the results estimated according to a scale from 0 to 4.0.

| Relative binding affinity to progesterone receptor [1] | relative affinity for the progesterone receptor ([1]; % of the affinity of natural progesterone) [%] | SMILES | Mean McPhail Score (max. 4.0) (endometrium; 0.1 mg/kg/day s.c.) | Mean McPhail Score (max. 4.0) (endometrium; 1.0 mg/kg/day s.c.) | Mean McPhail Score (max. 4.0) (endometrium; 0.0001 mg/kg/day s.c.) | Mean McPhail Score (max. 4.0) (endometrium; 0.001 mg/kg/day s.c.) | Mean McPhail Score (max. 4.0) (endometrium; 0.01 mg/kg/day s.c.) | Mean McPhail Score (max. 4.0) (endometrium; 10.0 mg/kg/day s.c.) | endometrium transforming effects in the McPhail test (endometrium; s.c., 0.0001 to 10.0 mg/kg/day, result in words) |
| --- | --- | --- | --- | --- | --- | --- | --- | --- | --- |
| 64 | – | CC(O)C(=O)C1(C)CCC2C3CCC4=CC(=O)CC(O)C4=C3CCC21C (stereo not drawn) [1β-OH trimegestone, 1β-hydroxytrimegestone, reference compound] | – | – | – | – | – | – | – |
| 12 | – | CC(O)C(=O)C1(C)CCC2C3CC(O)C4=CC(=O)CCC4=C3CCC21C (stereo not drawn) [6β-OH trimegestone, 6β-hydroxytrimegestone, reference compound] | – | – | – | – | – | – | – |
| – | – | CC(=O)[C@H]1CC[C@H]2[C@@H]3CCC4=CC(=O)CC[C@]4(C)[C@H]3CC[C@]12C [Progesterone] | 2.25 | 3.75 | – | – | – | – | – |
| 40 | 40 | C[C@H](OS(=O)(=O)O)C(=O)[C@@]1(C)CCC2C3CCC4=CC(=O)CCC4=C3CC[C@@]21C (stereo partly shown) [Trimegestone sulfate, Trimegestone sulfate, pyridinium salt] | 3.31 | 2.93 | 0.75 | 0.88 | 2.1 | 3.68 | dose-dependent potent endometrium transforming effects |
